Data taken from the supplement of paper PMC10627819.

Columns and labels:
Assay in all cases: Bliss interaction score (quartile over a dose matrix) (fitness difference); higher = more antagonism (negative = synergy)
B. subtilis 168 = tested on: B. subtilis 168
Outline: (§1)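 The Bliss score takes observed fitness and subtracts the expected fitness, calculated as a product of single-drug fitness values. Those single-drug values were inferred from the combination data. Fitness is OD595 at entry into stationary phase divided by the plate's robust no-drug mean, capped at 1, and the score is summarised by quartiles across technical, biological and donor/recipient replicates.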

S. aureus DSM 20231 = tested on: S. aureus DSM 20231
Outline: as §1

S. aureus Newman = tested on: S. aureus Newman
Outline: as §1

S. pneumoniae D39V = tested on: S. pneumoniae D39V
Outline: as §1
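Further: first quartile when negative (synergy) and third quartile when positive (antagonism).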

Structure (SMILES) | Bliss interaction score (B. subtilis 168) | Bliss interaction score (S. aureus DSM 20231) | Bliss interaction score (S. aureus Newman) | Bliss interaction score (S. pneumoniae D39V)
CO/N=C(\C(=O)N[C@@H]1C(=O)N2C(C(=O)O)=C(COC(C)=O)CS[C@H]12)c1csc(N)n1 [Cefotaxime] + CC[C@H]1OC(=O)[C@H](C)C(=O)[C@H](C)[C@@H](O[C@@H]2O[C@H](C)C[C@H](N(C)C)[C@H]2O)[C@](C)(OC)C[C@@H](C)C(=O)[C@H](C)[C@H]2N(CCCCn3cnc(-c4cccnc4)c3)C(=O)O[C@]12C [Telithromycin] | 0.0749 | 0.0754 | -0.033 | 0.0507
CC(=O)Oc1ccccc1C(=O)O [Acetylsalicylicacid] + CO[C@@]12[C@H](COC(N)=O)C3=C(C(=O)C(C)=C(N)C3=O)N1C[C@@H]1N[C@@H]12 [MitomycinC] | -0.0648 | 0.0545 | -0.0274 | 0.0652
CN(C)[C@@H]1C(O)=C(C(N)=O)C(=O)[C@@]2(O)C(O)=C3C(=O)c4c(O)ccc(Cl)c4[C@@](C)(O)[C@H]3C[C@@H]12 [Clortetracycline] + N[C@@H]1CONC1=O [CycloserineD] | 0.0921 | -0.118 | 0.0727 | 0.199
C[C@@H]1O[C@@H]1P(=O)(O)O [Fosfomycin] + CC[C@H]1OC(=O)[C@H](C)C(=O)[C@H](C)[C@@H](O[C@@H]2O[C@H](C)C[C@H](N(C)C)[C@H]2O)[C@](C)(OC)C[C@@H](C)C(=O)[C@H](C)[C@H]2N(CCCCn3cnc(-c4cccnc4)c3)C(=O)O[C@]12C [Telithromycin] | 0.0824 | 0.0337 | -0.0576 | -0.0329
O=C(O)c1cn(C2CC2)c2cc(N3CCNCC3)c(F)cc2c1=O [Ciprofloxacin] + CC[C@H]1OC(=O)[C@H](C)C(=O)[C@H](C)[C@@H](O[C@@H]2O[C@H](C)C[C@H](N(C)C)[C@H]2O)[C@](C)(OC)C[C@@H](C)C(=O)[C@H](C)[C@H]2N(CCCCn3cnc(-c4cccnc4)c3)C(=O)O[C@]12C [Telithromycin] | 0.149 | 0.0454 | 0.0334 | 0.0763
CN(C)[C@@H]1C(O)=C(C(N)=O)C(=O)[C@@]2(O)C(O)=C3C(=O)c4c(O)ccc(Cl)c4[C@@](C)(O)[C@H]3C[C@@H]12 [Clortetracycline] + COc1cccc2c1C(=O)c1c(O)c3c(c(O)c1C2=O)C[C@@](O)(C(=O)CO)C[C@@H]3O[C@H]1C[C@H](N)[C@H](O)[C@H](C)O1 [Doxorubicin] | 0.0883 | 0.0615 | -0.0472 | -0.182
CC(=O)Oc1ccccc1C(=O)O [Acetylsalicylicacid] + O=C(N[C@H](CO)[C@H](O)c1ccc([N+](=O)[O-])cc1)C(Cl)Cl [Chloramphenicol] | 0.0772 | -0.0904 | 0.0794 | 0.115
N#CC(C#N)=NNc1cccc(Cl)c1 [CCCP] + COc1ccc(C[C@H](N)C(=O)N[C@H]2[C@@H](O)[C@H](n3cnc4c(N(C)C)ncnc43)O[C@@H]2CO)cc1 [Puromycin] | 0.0243 | 0.0553 | 0.0515 | 0.0604
CN(C)[C@@H]1C(O)=C(C(N)=O)C(=O)[C@@]2(O)C(O)=C3C(=O)c4c(O)ccc(Cl)c4[C@@](C)(O)[C@H]3C[C@@H]12 [Clortetracycline] + CC[C@H]1OC(=O)[C@H](C)[C@@H](O[C@H]2C[C@@](C)(OC)[C@@H](O)[C@H](C)O2)[C@H](C)[C@@H](O[C@@H]2O[C@H](C)C[C@H](N(C)C)[C@H]2O)[C@](C)(O)C[C@@H](C)C(=O)[C@H](C)[C@@H](O)[C@]1(C)O [Erythromycin] | -0.214 | -0.118 | -0.0583 | 0.0677
CO/N=C(\C(=O)N[C@@H]1C(=O)N2C(C(=O)O)=C(COC(N)=O)CS[C@H]12)c1ccco1 [Cefuroxime] + C[C@@H](O)[C@H]1C(=O)N2C(C(=O)O)=C(SCCNC=N)C[C@H]12 [Imipenem] | 0.0678 | 0.145 | -0.0353 | 0.0481
CN(C)[C@@H]1C(O)=C(C(N)=O)C(=O)[C@@]2(O)C(O)=C3C(=O)c4c(O)ccc(Cl)c4[C@@](C)(O)[C@H]3C[C@@H]12 [Clortetracycline] + CN[C@H](CC(C)C)C(=O)N[C@H]1C(=O)N[C@@H](CC(N)=O)C(=O)N[C@H]2C(=O)N[C@H]3C(=O)N[C@H](C(=O)N[C@H](C(=O)O)c4cc(O)cc(O)c4-c4cc3ccc4O)[C@H](O)c3ccc(c(Cl)c3)Oc3cc2cc(c3O[C@@H]2O[C@H](CO)[C@@H](O)[C@H](O)[C@H]2O[C@H]2C[C@](C)(N)[C@H](O)[C@H](C)O2)Oc2ccc(cc2Cl)[C@H]1O [Vancomycin] | -0.0454 | -0.0315 | 0.0562 | 0.0542
CC(=O)Oc1ccccc1C(=O)O [Acetylsalicylicacid] + CC(=O)NC[C@H]1CN(c2ccc(N3CCOCC3)c(F)c2)C(=O)O1 [Linezolid] | 0.0401 | -0.0728 | 0.0639 | 0.145
CC(=O)Oc1ccccc1C(=O)O [Acetylsalicylicacid] + CC[C@H]1OC(=O)[C@H](C)C(=O)[C@H](C)[C@@H](O[C@@H]2O[C@H](C)C[C@H](N(C)C)[C@H]2O)[C@](C)(OC)C[C@@H](C)C(=O)[C@H](C)[C@H]2N(CCCCn3cnc(-c4cccnc4)c3)C(=O)O[C@]12C [Telithromycin] | 0.205 | 0.0695 | 0.0539 | -0.043
C[C@@H]1O[C@@H]1P(=O)(O)O [Fosfomycin] + Oc1cc(Cl)ccc1Oc1ccc(Cl)cc1Cl [Triclosan] | -0.0701 | 0.0662 | 0.0573 | 0.0597
CO/N=C(\C(=O)N[C@@H]1C(=O)N2C(C(=O)O)=C(COC(N)=O)CS[C@H]12)c1ccco1 [Cefuroxime] + N[C@@H]1CONC1=O [CycloserineD] | -0.0514 | 0.114 | -0.0647 | 0.0839
CN(C)[C@@H]1C(O)=C(C(N)=O)C(=O)[C@@]2(O)C(O)=C3C(=O)c4c(O)ccc(Cl)c4[C@@](C)(O)[C@H]3C[C@@H]12 [Clortetracycline] + CO[C@H]1/C=C/O[C@@]2(C)Oc3c(C)c(O)c4c(O)c(c(/C=N/N5CCN(C)CC5)c(O)c4c3C2=O)NC(=O)/C(C)=C\C=C\[C@H](C)[C@H](O)[C@@H](C)[C@@H](O)[C@@H](C)[C@H](OC(C)=O)[C@@H]1C [Rifampicin] | -0.26 | -0.0529 | 0.0541 | 0.0664
